Consider three compounds from the supplement of paper PMC11061612.

Experiment [1] deals with MM1S (Plasma Cell Myeloma). Kind of experiment: combination Emax (second highest fraction inhibited in the dose matrix, 72 h); higher = more inhibition; extreme values may be limits of the assay. The method, boiled down:
(§1)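 Cell lines in DMEM/F12 or RPMI with 10% FBS were plated in 1536-well plates, held 24 hours at 37°C, 5% CO2, then given two-drug dose matrices for 72 hours (DMSO typically 0.2%). Viability was read by CellTiter-Glo 2.0 luminescence and scaled as inhibition from 0 (vehicle wells) to 1 (blank wells). Combination Emax is the second-highest inhibition in the matrix; Bliss excess is observed combination effect minus expected EA + EB − EA·EB, EA and EB being single-agent effects.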

Experiment [2] has as its system MOLT-13 (T-Lymphoblastic Leukemia). The experiment is described as above. Put shortly:
as §1

For experiment [3], the system named is HPAF-II (Pancreatic Carcinoma). The experiment is described as above. Put shortly: as §1
The test system of experiment [4] is BHT-101 (Thyroid Gland Carcinoma). The experiment is described as above. The method, boiled down:
as §1

Experiment [5] relates to DBTRG-05MG (Glioblastoma). Described as above. The method, boiled down:
as §1

The test system of experiment [6] is KP-4 (Pancreatic Carcinoma). Described as above. The method, boiled down:
as §1

Experiment [7] has as its system WM35 (Melanoma). The experiment is described as above. Put shortly: as §1
Experiment [8] relates to NAMALWA (Burkitt's Lymphoma). The experiment is described as above. Put shortly: as §1
The test system of experiment [9] is UACC-257 (Melanoma). The experiment is described as above. Put shortly:
as §1

Experiment [10] concerns T84 (Colorectal Carcinoma). Described as above. Put shortly: as §1
Experiment [11] deals with NB1 (Neuroblastoma). The description is as above. The method, boiled down: as §1
The subject of experiment [12] is T47D (Breast Carcinoma). The experiment is described as above. Put shortly: as §1
Experiment [13] concerns SNU-423 (Hepatocellular Carcinoma). The description is as above. Put shortly:
as §1

Experiment [14] relates to PL4 (Pancreatic Carcinoma). The description is as above. The method, boiled down:
as §1

Experiment [15] deals with OVCAR-3 (Ovarian Carcinoma). The experiment is described as above. Put shortly:
as §1

For experiment [16], the system named is HPAF-II (Pancreatic Carcinoma). Kind of experiment: Bliss excess, mean over the matrix (fraction); higher = more synergy. The method, boiled down:
as §1
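Throughout, for Bliss excess, mean over the matrix: after 72 h of two-drug dosing.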

Consider `Cn1cnc2c(F)c(Nc3ccc(Br)cc3Cl)c(C(=O)NOCCO)cc21` [Selumetinib] + CC(C)n1c(=O)n(C)c2cnc3cc(F)c(-c4ccc(OCCCN5CCCCC5)nc4)cc3c21 [AZD1390] (first compound max 10 µM, 7x7, partner max 0.3 µM), for which the “combination Emax” value in experiment [1] came to 0.264; in experiment [2], 0.456; in experiment [3], 0.64; in experiment [4], 0.791; in experiment [5], 0.315; in experiment [6] it was 0.283. Also, the “combination Emax” value in [7] was found to be 0.65; in [8] it was 0.136; in experiment [9], 0.568; in [10] it was 0.397; in [11], 0.127; in experiment [12] it was 0.109. For the same compound, the “combination Emax” value amounted to 0.275 in experiment [13], 0.567 in experiment [14] and 0.048 in experiment [15]. In experiment [16], the Bliss excess worked out at 0.0088.
With `Cn1cnc2c(F)c(Nc3ccc(Br)cc3Cl)c(C(=O)NOCCO)cc21` [Selumetinib] + CCN(CCO)CCCOc1ccc2c(Nc3cc(CC(=O)Nc4cccc(F)c4)[nH]n3)ncnc2c1 [AZD2811] (first compound max 10 µM, 7x7, partner max 1 µM), the “combination Emax” value is 0.283 in experiment [1]; 1 in experiment [2]; 0.682 in [3]; 0.846 in experiment [4]; 0.282 in experiment [5]; 0.678 in experiment [6]. Further, the “combination Emax” value amounted to 0.664 in experiment [7]; 0.336 in [8]; 0.68 in experiment [9]; 0.312 in [10]; 0.566 in experiment [11]; 0.29 in experiment [12]. Moreover, the “combination Emax” value turned out to be 0.264 in experiment [13], 0.572 in [14] and 0.182 in [15]. In addition, in [16], the Bliss excess was 0.0129.
`Cn1cnc2c(F)c(Nc3ccc(Br)cc3Cl)c(C(=O)NOCCO)cc21` [Selumetinib] + C[C@@H]1COCCN1C2=NC(=NC(=C2)C3(CC3)[S@](=N)(=O)C)C4=C5C=CNC5=NC=C4 [AZD6738] (first compound max 10 µM, 7x7, partner max 10 µM): the “combination Emax” value was determined as 0.475 in [1]; 1 in [2]; 0.768 in [3]; 0.883 in experiment [4]; 0.358 in [5]; 0.506 in experiment [6]. Further, the “combination Emax” value in experiment [7] turned out to be 0.767; in experiment [8], 0.918; in experiment [9], 0.595; in experiment [10], 0.667; in experiment [11], 0.783; in experiment [12] it was 0.158. In addition, the “combination Emax” value amounted to 0.285 in experiment [13], 0.798 in experiment [14] and 0.4 in [15]. Moreover, in experiment [16], the Bliss excess was found to be 0.0119.
